Test system: Brca1/P53-deficient mice
Assay: Indirect estimation of recombinant P53 cells by qPCR of the WT allele (longitudinal cohort)
Type: in vivo
Settings: tumour-free mammary glands
Description: In order to obtain a suspension enriched in mouse mammary epithelial cells, from which we can obtain both RNA and proteins and also maintain acceptable viability, the protocol for obtaining mouse mammary organoids was carried out. Once the mammary glands were removed after performing the necropsy of the mouse, they were mechanically disintegrated by cutting with two scalpels. Subsequently, they were incubated in a volume of 10 mL of supplemented medium (DMEM/F12 (50%/50%), 5% fetal bovine serum, 1% penicillin/streptomycin) plus 1.25 mL of collagenase, and 1 mL of trypsin. This enzymatic digestion was carried out for 30 minutes at 37 °C in orbital agitation at 100 revolutions per minute (rpm) (= 1.666 s^-1). […]
DNA was extracted from frozen organoids obtained from mammary glands at 30 and 60 days of involution, and from tumour-free mammary glands of mice that developed breast cancer over time. The quantity and quality of DNA were quantified using a spectrophotometer (Nanodrop). Subsequently, this DNA was used to determine the recombination frequency of the P53 gene in the breasts of the different groups by Quantitative Polymerase Chain Reaction (qPCR). […]
For each sample, qPCR reactions against P53 and Tfrc were performed in parallel and in triplicate. […] The qPCR reactions and the reading of the signal were performed in the Mastercycler epgradient S Realplex2 thermal cycler from Eppendor. […]

C=CCN1C[C@H](C(=O)N(CCCN(C)C)C(=O)NCC)C[C@@H]2c3cccc4[nH]cc(c34)C[C@H]21 [cabergoline, 1-[(6-allylergolin-8ß-yl)-carbonyl]-1-[3-(dimethylamino)propyl]-3-ethylurea]
WT allele (proportion of WT cells) over time: increase in WT cells was observed over time

Source: EP4285905A1, “CABERGOLINE OR A PHARMACEUTICALLY ACCEPTABLE SALT OR SOLVATE THEREOF, FOR USE IN PREVENTION OR DELAY OF POST-PREGNANCY BREAST CANCER IN A FEMALE MAMMAL” (Consejo Superior de Investigaciones Cientificas, priority 2022, dated 2023)
